# Tests used:
# MNT-1 cells [1] = experiment: Melanin production in MNT-1 cells (absorbance 490 nm); type: cell-based, human; conditions: MNT-1, 72 hours
# Procedure: The melanin inhibitory effects of each substance were confirmed through an analysis of melanin production following treatment with procyanidin A2, quercetin, and their combination. Specifically, MNT-1 cells (human-derived melanoma skin cells) were treated for 72 hours with procyanidin A2, quercetin, and the combination at the maximum concentration without cytotoxicity according to Table 5. The negative control group was untreated, and arbutin, a tyrosinase inhibitor, was used as the positive control. Afterward, the media was removed, the cell bodies were dissolved with 1 N NaOH, heated at 95° C. for 5 minutes, and the absorbance was measured at 490 nm using a microplate reader (Molecular Devices, Sunnyvale, CA, USA).
# mushroom tyrosinase = experiment: Tyrosinase inhibitory activity (L-DOPA, DOPA chrome at 475 nm); type: biochemical; conditions: for tyrosinase inhibitory activity: Example 1, FIG. 1; for Inhibitory Activity (%): Example 2, Table 2
# Procedure: In the reaction mixture, 0.5 ml of 0.175 M sodium phosphate buffer (pH 6.8), 0.2 ml of a substrate solution containing 10 mM L-DOPA, and 0.1 ml of the sample solution were mixed, followed by the addition of 0.2 ml of mushroom tyrosinase (110 unit/ml). The reaction was carried out for 2 minutes at 25° C., and the DOPA chrome produced in the reaction mixture was measured at 475 nm. Tyrosinase inhibitory activity was expressed as the percentage reduction in absorbance compared to the control group without sample solution.
# [2] = tested on: tyrosinase, TRP-1, TRP-2, MITF in MNT-1 cells; experiment: Melanin synthesis-related protein expression (western blot); type: cell-based, human; conditions: MNT-1, FIG. 5
# Procedure: (§1) Specifically, after treating with procyanidin A2, quercetin, and the combination, MNT-1 cells were washed twice in ice-cold PBS and lysed in ice-cold RIPA buffer (Sigma-Aldrich). Protein concentration was measured using a Bicinchoninic acid (BCA) protein assay kit (Pierce, Rockford, IL, USA), and 35 μg of protein was separated using sodium dodecyl sulfate-polyacrylamide gel electrophoresis (10%) and transferred to a nitrocellulose membrane (Whatman, Dassel, Germany). The membrane was blocked in 5% non-fat milk in TBST buffer (1:5000) and then treated with primary (1:1000) and secondary antibodies (Table 6). Protein bands were detected using SuperSignal West Femto maximum sensitivity substrate (Thermo Fisher Scientific, Rockford, IL, USA) and quantified using Image Lab™ software (version 5.2.1).
# [3] = tested on: LC3-II, ATG5, Beclin-1, p62, LC3-I in MNT-1 cells; experiment: Autophagy activity-related protein expression (western blot); type: cell-based, human; conditions: for expression levels of LC3-II, ATG5, and Beclin-1: MNT-1, FIG. 6
# Procedure: as §1
# LC3-II, ATG5, and Beclin-1 are involved in the formation of autophagosomes and activate autophagy. In contrast, p62 and LC3-I, which show characteristics of being decomposed during autophagosome formation, decrease when autophagy activate. To verify the autophagy activity of procyanidin A2, quercetin, and their combination, the expression levels of autophagy-activity-related proteins were analyzed. The specific method for this experiment, except for using Table 8 for antibodies, was conducted in the same manner as the method in Example 5 for the analysis of melanin synthesis-related protein expression.
# MNT-1 cells [4] = experiment: Cell viability / cytotoxicity, MTT assay; type: cell-based, human; conditions: MNT-1, 72 hours
# Procedure: To examine the cell toxicity of procyanidin A2, quercetin, and their combination, a cell viability analysis was conducted. Specifically, cell survival and cytotoxicity were measured using the 3-(4,5-dimethylthiazol-2-yl)-2,5-diphenyltetrazoliumbromide (MTT) Assay. MNT-1 cells were seeded in a 96 well plate at 1×10^5 cells/well and cultured for 24 hours in a 37° C., 5% CO2 incubator. After that, each compound was treated according to Table 4 and cultured for 72 hours. Then, MTT solution at a final concentration of 0.5 mg/ml was added and reacted for 4 hours at 37° C. The media containing MTT solution was removed, and 100 μl of DMSO was treated in each well to dissolve the formazan precipitate formed in reaction with the living cells. Absorbance was measured at 550 nm using an ELISA reader (CLARIOstar Plus, BMG LABTECH, Germany).
# [5] = procyanidin A2 only, 50 μM, MNT-1
"tyrosinase inhibition (mushroom tyrosinase; 300 μM, positive control, Example 1) [%]",tyrosinase inhibitory activity (mushroom tyrosinase; 2.5 μM) [%],Inhibitory Activity (%) (mushroom tyrosinase; 2.5 μM),tyrosinase inhibitory activity (mushroom tyrosinase; 5 μM) [%],Inhibitory Activity (%) (mushroom tyrosinase; 5 μM),tyrosinase inhibitory activity (mushroom tyrosinase; 10 μM) [%],SMILES,melanin production reduced by (NT set to 100%) (MNT-1 cells [1]; arbutin 1 mM),"protein expression of tyrosinase, TRP-1, and TRP-2 ([2]; 20 μM)",melanin production reduced to (NT set to 100%) (MNT-1 cells [1]; 20 μM) [%],"expression levels of LC3-II, ATG5, and Beclin-1 ([3]; 20 μM)",cytotoxicity (MNT-1 cells [4]; approximately 25 μM and below),"protein expression of tyrosinase, TRP-1, and TRP-2 ([2]; 50 μM)",melanin production reduced to (NT set to 100%) (MNT-1 cells [1]; 50 μM) [%],"expression levels of LC3-II, ATG5, and Beclin-1 ([3]; 50 μM)","ATG5 and Beclin-1 expression [3, 5]","P62 expression [3, 5]","ratio of LC3-II to LC3-I [3, 5]",cytotoxicity (MNT-1 cells [4]; 100 μM),cytotoxicity (MNT-1 cells [4]; concentrations below 50 μM)
58.79,–,–,–,–,–,"OC[C@H]1O[C@@H](Oc2ccc(O)cc2)[C@H](O)[C@@H](O)[C@@H]1O [arbutin, reference compound]",about 57.1%,–,–,–,–,–,–,–,–,–,–,–,–
–,17.65,17.05,32.08,31.61,49.44,"O=c1c(O)c(-c2ccc(O)c(O)c2)oc2cc(O)cc(O)c12 [quercetin, 2-(3,4-dihydroxyphenyl)-3,5,7-trihydroxy-4H-chromen-4-one]",–,reduction,64.5,little to no significant change or only slight increases,no cytotoxicity,–,–,–,–,–,–,–,–
–,29.82,30.27,51.12,49.04,68.81,Oc1cc(O)c2c(c1)O[C@@]1(c3ccc(O)c(O)c3)Oc3cc(O)c4c(c3[C@@H]2[C@H]1O)O[C@H](c1ccc(O)c(O)c1)[C@H](O)C4 [procyanidin A2],–,–,–,–,–,reduction,72.3,little to no significant change or only slight increases,slight increase,slight increase,remained similar to the control group,toxicity,no cytotoxicity

# From US20240197672A1, “COMPOSITION FOR INHIBITING SKIN PIGMENTATION THROUGH AUTOPHAGY ACTIVITY CONTAINING PROCYANIDIN A2 AND QUERCETIN, AS ACTIVE INGREDIENTS” (KYUNGPOOK NATIONAL UNIVERSITY INDUSTRY-ACADEMIC COOPERATION …, priority 2022, published 2024)
